Test results: publication PMC11620503 (Antimicrobial Agents and Chemotherapy, 2024)
Values after ≈ are worked out from the molar mass of the structure shown. Read-outs that look alike come from different tables or passages of the source.

Assays:
Test in all cases: MIC, broth microdilution
[1] = tested on: MEM-nonsusceptible Enterobacterales with metallo-carbapenemases; type: cell-based; details: MEM-nonsusceptible Enterobacterales with metallo-carbapenemases (55), cefiderocol 54 isolates
[2] = tested on: MBL-producing isolates (Enterobacterales); type: cell-based; details: Enterobacterales with metallo-carbapenemases (74), cefiderocol 73 isolates; for MIC90: read-out: MIC90
[3] = tested on: serine-carbapenemase-producing isolates (Enterobacterales); type: cell-based; details: Enterobacterales with serine-carbapenemases (80); for MIC50 / MIC90: fixed concentration (μg/mL) in label; for MIC50: read-out: MIC50; for MIC90: read-out: MIC90
[4] = tested on: 55 isolates of A. baumannii; type: cell-based, Acinetobacter baumannii; details: Acinetobacter baumannii (55); for MIC90: read-out: MIC90
[5] = tested on: 96 P. aeruginosa; type: cell-based, Pseudomonas aeruginosa; details: Pseudomonas aeruginosa (96); for MIC50 / MIC90: fixed concentration (μg/mL) in label; for MIC50: read-out: MIC50; for MIC90: read-out: MIC90
[6] = tested on: MEM-, imipenem/relebactam-, and ceftolozane/tazobactam-nonsusceptible P. aeruginosa; type: cell-based, Pseudomonas aeruginosa; details: for CLSI MIC interpretation I (intermediate) / CLSI MIC interpretation R (resistant) / CLSI MIC interpretation S (susceptible): marked c: breakpoints for β-lactam alone; for MIC50 / MIC90: Pseudomonas aeruginosa; for MIC50: read-out: MIC50; for MIC90: read-out: MIC90
[7] = tested on: MEM-nonsusceptible Enterobacterales with serine-carbapenemases; type: cell-based; details: MEM-nonsusceptible Enterobacterales with serine-carbapenemases (58)
[8] = tested on: MEM-nonsusceptible Enterobacterales; type: cell-based; details: MEM-nonsusceptible Enterobacterales (127), cefiderocol 126 isolates; for MIC90: read-out: MIC90
[9] = tested on: 207 Enterobacterales including carbapenem-resistant isolates; type: cell-based; details: for MIC90: read-out: MIC90
[10] = CLSI breakpoints, marked c: breakpoints for β-lactam alone, tigecycline: FDA breakpoints
[11] = fixed concentration (μg/mL) in label, read-out: MIC50
[12] = fixed concentration (μg/mL) in label, read-out: MIC90
[13] = fixed concentration (μg/mL) in label
[14] = CLSI breakpoints, marked c: breakpoints for β-lactam alone
[15] = Imipenem/relebactam-nonsusceptible Pseudomonas aeruginosa (43), CLSI breakpoints
[16] = MEM-nonsusceptible Pseudomonas aeruginosa (76), CLSI breakpoints
[17] = Imipenem/relebactam-nonsusceptible Pseudomonas aeruginosa (43), fixed concentration (μg/mL) in label
[18] = MEM-nonsusceptible Pseudomonas aeruginosa (76), fixed concentration (μg/mL) in label
[19] = All Enterobacterales (207), cefiderocol 205 isolates, CLSI breakpoints, marked c: breakpoints for β-lactam alone, tigecycline: FDA breakpoints

NCC[C@H](O)C(=O)N[C@@H]1C[C@H](N)[C@@H](O[C@H]2O[C@H](CN)[C@@H](O)[C@H](O)[C@H]2O)[C@H](O)[C@H]1O[C@H]1O[C@H](CO)[C@@H](O)[C@H](N)[C@H]1O [Amikacin]
CLSI MIC interpretation I (intermediate) [1, 10]: 5.5% | CLSI MIC interpretation R (resistant) [1, 10]: 65.5% | MIC50 [1, 11]: 32 µg/mL (≈ 54.6 µM) | MIC90 [1, 12]: > 64 µg/mL | CLSI MIC interpretation I (intermediate) [2, 10]: 5.4% | CLSI MIC interpretation R (resistant) [2, 10]: 52.7% | CLSI MIC interpretation S (susceptible) [2, 10]: 41.9% | MIC50 [2, 11]: 16 µg/mL (≈ 27.3 µM) | MIC90 [2, 13]: > 64 µg/mL | CLSI MIC interpretation I (intermediate) [3, 10]: 8.8% | CLSI MIC interpretation R (resistant) [3, 10]: 37.5% | CLSI MIC interpretation S (susceptible) [3, 10]: 53.8% | MIC50 [3]: 4 µg/mL (≈ 6.83 µM) | MIC90 [3]: 64 µg/mL (≈ 109 µM) | CLSI MIC interpretation I (intermediate) [4, 14]: 14.5% | CLSI MIC interpretation R (resistant) [4, 14]: 56.4% | CLSI MIC interpretation S (susceptible) [4, 14]: 29.1% | MIC50 [4, 11]: 64 µg/mL (≈ 109 µM) | MIC90 [4, 13]: > 64 µg/mL | CLSI MIC interpretation I (intermediate) [5, 14]: 7.3% | CLSI MIC interpretation R (resistant) [5, 14]: 29.2% | CLSI MIC interpretation S (susceptible) [5, 14]: 63.5% | MIC50 [5]: 8 µg/mL (≈ 13.7 µM) | MIC90 [5]: > 64 µg/mL | CLSI MIC interpretation (%) I ([6]; I, intermediate (including susceptible dose-dependent), CLSI breakpoints, last subgroup of Table 2): 11.1% | CLSI MIC interpretation I (intermediate) [6, 15]: 9.3% | CLSI MIC interpretation R (resistant) [6, 15]: 58.1% | CLSI MIC interpretation S (susceptible) [6, 15]: 32.6% | CLSI MIC interpretation I (intermediate) [6, 16]: 7.9% | CLSI MIC interpretation R (resistant) [6, 16]: 36.8% | CLSI MIC interpretation S (susceptible) [6, 16]: 55.3% | MIC50 [6, 17]: 64 µg/mL | MIC90 [6, 17]: > 64 µg/mL | MIC50 [6, 18]: 8 µg/mL (≈ 13.7 µM) | MIC90 [6, 18]: > 64 µg/mL | MIC50 ([6]; Table 2, broth microdilution): 64 µg/mL (≈ 109 µM) | MIC90 ([6]; Table 2, broth microdilution): > 64 µg/mL | CLSI MIC interpretation (%) R ([6]; R, resistant, CLSI breakpoints, last subgroup of Table 2): 55.6% | CLSI MIC interpretation (%) S ([6]; S, susceptible, CLSI breakpoints, last subgroup of Table 2): 33.3% | CLSI MIC interpretation I (intermediate) [7, 10]: 10.3% | CLSI MIC interpretation R (resistant) [7, 10]: 44.8% | CLSI MIC interpretation S (susceptible) [7, 10]: 44.8% | MIC50 [7, 11]: 8 µg/mL (≈ 13.7 µM) | MIC90 [7, 12]: 64 µg/mL (≈ 109 µM) | CLSI MIC interpretation I (intermediate) [8, 10]: 7.9% | CLSI MIC interpretation R (resistant) [8, 10]: 52% | CLSI MIC interpretation S (susceptible) [8, 10]: 40.2% | MIC50 [8, 11]: 16 µg/mL (≈ 27.3 µM) | MIC90 [8, 13]: > 64 µg/mL | CLSI MIC interpretation I (intermediate) [9, 19]: 6.3% | CLSI MIC interpretation R (resistant) [9, 19]: 36.7% | CLSI MIC interpretation S (susceptible) [9, 19]: 57% | MIC50 ([9]; read-out: MIC50): 4 µg/mL (≈ 6.83 µM) | MIC90 [9]: > 64 µg/mL

O=C(O)c1cn(C2CC2)c2cc(N3CCNCC3)c(F)cc2c1=O [Ciprofloxacin]
MIC90 [2, 13]: > 64 µg/mL | MIC50 [3]: 32 µg/mL (≈ 96.6 µM) | MIC90 [3]: > 64 µg/mL | MIC90 [4, 13]: > 64 µg/mL | MIC50 [5]: 16 µg/mL (≈ 48.3 µM) | MIC90 [5]: 64 µg/mL (≈ 193 µM) | MIC50 [6, 17]: 32 µg/mL | MIC90 [6, 17]: 64 µg/mL | MIC50 [6, 18]: 16 µg/mL (≈ 48.3 µM) | MIC90 [6, 18]: 64 µg/mL (≈ 193 µM) | MIC50 ([6]; Table 2, broth microdilution): 32 µg/mL (≈ 96.6 µM) | MIC90 ([6]; Table 2, broth microdilution): 64 µg/mL (≈ 193 µM) | MIC90 [8, 13]: > 64 µg/mL | MIC90 [9]: > 64 µg/mL
